The text below walks through data of US7198775B2, “Detectably labeled porphyrin compound for identifying the sentinel lymph node” (The Trustees of Columbia University in the City of New York, priority 2000, dated 2007).

For one series, the system named is lymph nodes. Put plainly: dye tested on rabbits for staining of the lymph nodes. Type of series: in vivo. From the text: The present invention in one embodiment therefore acts as a dye that stains the lymphatic channels of the body for identification of the sentinel lymph node.
The conditions of series [1]: rats bearing tumors; cited from earlier work.

Take “Tc-99m Phthalocyanine Tetrasulfonate [Tc-99m-PCTS]”: in the series with lymph nodes, the “staining of the lymph nodes” value is “successfully shown to stain the lymph nodes”.

“^99Tc-labeled-tetrasulfophtalocyanine [[^99Tc] TSPC]”: in series [1], the “in vivo stability of the complex” value was “absence of ^99Tc accumulation in the thyroid and the stomach”; the “tissue distribution (accumulation of most of the product)” value was “accumulated in the liver, kidneys, ovaries, and uterus”; the tumor uptake entry is given as “occurred mainly in the exterior cell layers”.
